Reference: US20200390718A1, “METHODS AND COMPOSITIONS FOR […]-VIRAL TRANSFER VECTOR IMMUNE RESPONSE” (Selecta Biosciences, Inc., priority 2019, published 2020)

Tested on: AAV8-SEAP
Experiment: Serum SEAP expression after AAV8-SEAP injections
Type: in vivo, C57BL/6 female mice
Conditions: after the second boost at d140 (FIG. 2A) or d147 (FIG. 2B); AAV8-SEAP 1×10^10 VG
Method: Three groups of C57BL/6 female mice (6 mice each) were injected (r.o.) on days 0 and 56 with 1×10^10 VG of AAV8-SEAP without any nanoparticles (one group) or with ImmTOR™ at 100 μg of rapamycin (synthetic nanocarriers comprising rapamycin, such as those produced in Example 1; two groups). Of the […] two groups, one group was left untreated and one was additionally treated with systemic dexamethasone (i.p., 200 μg in 100 μL per injection) on injection days 0 and 56.
At time indicated in FIGS. 1A and 1B (days 14, 35, 49, 63 and 71 or days 13, 19, 33, 48, 62 and 69), mice were bled, serum separated from whole blood, and stored at −20±5° C. until analysis. SEAP levels in serum were measured using an assay kit from ThermoFisher Scientific (Waltham, Mass., USA). Briefly, sera samples and positive controls were diluted in dilution buffer, incubated at 65° C. for 30 min, then cooled to room temperature, and plated into a 96-well format. Then, assay buffer (5 min) and substrate (20 min) were added and the plates were read on a luminometer (477 nm).
This has warranted a series of further studies in which four groups of C57BL/6 female mice (6 mice each) were injected (r.o.) on days 0, 56 and 140 or 147 with 1×10^10 VG of AAV8-SEAP without any nanoparticles (two groups) or with ImmTOR™ at 100 μg of rapamycin (synthetic nanocarriers comprising rapamycin; two groups). […]

For `C[C@@H]1C[C@H]2[C@@H]3CCC4=CC(=O)C=C[C@]4(C)[C@@]3(F)[C@@H](O)C[C@]2(C)[C@@]1(O)C(=O)CO` [dexamethasone, 9α-fluoro-11β,17α,21-trihydroxy-16α-methylpregna-1,4-diene-3,20-dione], the “benefit in SEAP expression vs. untreated” value was 10-80%.
